Calls of active or inactive are those of the source. No cut-off for these calls is given here.
Columns and labels:
Yersinia enterocolitica = experiment: Antibacterial activity against Yersinia enterocolitica ATCC 23715 at 100 ug/ml after 24 hrs; type: functional, organism-based
Shigella sonnei = experiment: Antibacterial activity against Shigella sonnei ATCC 11060 at 100 ug/ml after 24 hrs; type: functional, organism-based
Serratia marcescens = experiment: Antibacterial activity against Serratia marcescens ATCC 25419 at 100 ug/ml after 24 hrs; type: functional, organism-based
Salmonella enteritidis = experiment: Antibacterial activity against Salmonella enteritidis ATCC 13076 at 100 ug/ml after 24 hrs; type: functional, organism-based; conditions: Salmonella enterica subsp. enterica serovar Enteritidis
Klebsiella aerogenes = experiment: Antibacterial activity against Enterobacter aerogenes ATCC 13048 at 100 ug/ml after 24 hrs; type: functional, organism-based
Human betaherpesvirus 5 [1] = experiment: Antiviral activity against Human cytomegalovirus infected in Human HEL cells assessed as virus-induced cytopathic effect treated 1 hr prior to infection measured after 7 days; type: functional, organism-based; conditions: Human betaherpesvirus 5, HEL
Human betaherpesvirus 5 [2] = experiment: Antiviral activity against Human cytomegalovirus infected in Human HEL cells assessed as virus-induced cytopathic effect at 1 ug/ml treated 1 hr prior to infection measured after 7 days; type: functional, organism-based
A549 = experiment: Cytotoxicity against human A549 cells by MTT assay; type: functional, cell-based
HT-29 = experiment: Cytotoxicity against human HT-29 cells by MTT assay; type: functional, cell-based
P388 = experiment: Cytotoxicity against mouse P388 cells by MTT assay; type: functional, cell-based

EC50 (Human betaherpesvirus 5 [1]) [µg/mL]	SMILES	Activity (Yersinia enterocolitica)	Activity (Shigella sonnei)	Activity (Serratia marcescens)	Activity (Salmonella enteritidis)	Activity (Klebsiella aerogenes)	Activity (Human betaherpesvirus 5 [2])	EC50 (A549) [nM]	EC50 (HT-29) [nM]	EC50 (P388) [nM]
> 50	C=C(C)[C@@H]1CC(=O)C[C@H]2C(=O)[C@@H]3[C@@H]4C(=C[C@@H]12)C(=O)O[C@@H]4C[C@]3(C)O	inactive	inactive	inactive	inactive	inactive	inactive	> 20000	> 20000	11800
–	CO[C@H](C(=O)[C@@H](O)[C@@H](C)O)[C@@H]1Cc2cc3cc(O[C@H]4C[C@@H](O[C@@H]5C[C@@H](O)[C@H](O)[C@@H](C)O5)[C@H](O)[C@@H](C)O4)c(C)c(O)c3c(O)c2C(=O)[C@H]1O[C@H]1C[C@@H](O[C@@H]2C[C@@H](O)[C@@H](O[C@@H]3C[C@](C)(O)[C@H](O)[C@@H](C)O3)[C@@H](C)O2)[C@H](O)[C@@H](C)O1 [PLICAMYCIN]	–	–	–	–	–	–	60	70	50

Source: ChEMBL document CHEMBL3124913, “Sinugyrosanolide A, an unprecedented C-4 norcembranoid, from the Formosan soft coral Sinularia gyrosa” (Bioorg Med Chem Lett, 2014)
